Laboratory results published in PMC7038240 (Antimicrobial Agents and Chemotherapy, 2020).
Where two headings read alike, the source gives them in different places.

What was measured:
[1] = system: E. coli DH5α producing individual β-lactamases; assay: Broth microdilution MIC in engineered strains (BLI fixed at 4 μg/ml); format: cell-based, Escherichia coli
Protocol: The spectrum of antibacterial activity of cefepime-taniborbactam and the breadth of inhibitory activity of this next-generation cyclic boronate BLI were assessed in 34 engineered E. coli strains each overproducing an individual β-lactamase and directly compared to those of the clinically approved agent ceftazidime-avibactam. In this manner, the antibacterial activity of the BL-BLI combinations relative to that of the partnered cephalosporins alone provided a quantitative measure of β-lactam potentiation that directly reflects the levels of inhibition of β-lactamase function achieved by addition of BLI. The BLI concentration was fixed at 4 μg/ml, as described in Materials and Methods.
The isogenic strains were used to establish a spectrum of inhibitory activity against 34 β-lactamases that were engineered into E. coli DH5α cells carrying chromosomal AmpC (ESC-1), a non-ESBL enzyme unable to hydrolyze these third- or fourth-generation cephalosporins. […]. The DNA fragments containing the promoter, the signal sequence, and each β-lactamase-coding gene were synthesized and cloned into pTwist Chlor High Copy in DH5α at Twist Bioscience. The individual expression plasmids along with their GenBank accession numbers are listed in Table S2 in the supplemental material and below. The protein sequences of β-lactamases were obtained from the Beta-Lactamase DataBase (www.bldb.eu) ([47]). Expression of the β-lactamases was confirmed by verifying decreased susceptibility to example test antibiotics that are known substrates of the enzymes. E. coli DH5α carrying pTU501, which expressed only the TEM-1 signal sequence from the bla promoter, was used as a control. The plasmid sequences are available through GenBank (Table S2).
The in vitro antibacterial activity of the β-lactams alone or in combination with the BLIs was determined in cation-adjusted Mueller-Hinton broth (CAMHB) microdilution assays according to CLSI recommendations ([51]). […]. The inocula for the broth microdilution assays were prepared by the broth culture method ([51]). […]

[2] = system: P. aeruginosa clinical isolates; assay: microbe, parasite or virus in culture; format: cell-based, Pseudomonas aeruginosa
Protocol: (§1) The antibacterial activity of the cephalosporins alone was included to ascertain the level of potentiation by the partnered BLI. BLIs were tested at a fixed concentration of 4 μg/ml in all combinations except cefepime-tazobactam, where tazobactam was fixed at a concentration of 8 μg/ml ([38]).
(§2) The in vitro antibacterial activity of the β-lactams alone or in combination with the BLIs was determined in cation-adjusted Mueller-Hinton broth (CAMHB) microdilution assays according to CLSI recommendations ([51]). […] The inocula for the broth microdilution assays were prepared by the broth culture method ([51]).

[3] = system: Enterobacterales clinical isolates; assay: MIC distributions in panels of clinical isolates (MIC50, MIC90, % susceptible); format: cell-based
Protocol: as §1, §2

E. cloacae = assay: microbe, parasite or virus in culture; format: cell-based
Protocol: as §1, §2

[4] = system: cefepime-nonsusceptible Enterobacterales isolates; parameters: method as in earlier work; details: taniborbactam fixed at 4 μg/ml in combination; cited from earlier work
[5] = Escherichia coli, ACT-17 (class C)
[6] = Escherichia coli, ACT-C189 (P99 AmpC) (class C)
[7] = Escherichia coli, CMY-2 (class C)
[8] = Escherichia coli, CTX-M-2 (class A)
[9] = Escherichia coli, CTX-M-15 (class A)
[10] = Escherichia coli, GES-5 (class A)
[11] = Escherichia coli, GIM-1 (class B)
[12] = Escherichia coli, IMP-1 (class B)
[13] = Escherichia coli, KPC-2 (class A)
[14] = Escherichia coli, KPC-3(A177E/D179Y) (class A)
[15] = Escherichia coli, KPC-3(D179Y) (class A)
[16] = Escherichia coli, KPC-3(D179Y/T243M) (class A)
[17] = Escherichia coli, KPC-3(T243A) (class A)
[18] = Escherichia coli, KPC-3(V240G) (class A)
[19] = Escherichia coli, KPC-3 (class A)
[20] = Escherichia coli, NDM-1 (class B)
[21] = Escherichia coli, NDM-5 (class B)
[22] = Escherichia coli, NDM-7 (class B)
[23] = Escherichia coli, OXA-48 (class D)
[24] = Escherichia coli, OXA-162 (class D)
[25] = Escherichia coli, OXA-163 (class D)
[26] = Escherichia coli, OXA-181 (class D)
[27] = Escherichia coli, OXA-232 (class D)
[28] = Escherichia coli, PER-1 (class A)
[29] = Escherichia coli, PER-2 (class A)
[30] = Escherichia coli, SHV-5 (class A)
[31] = Escherichia coli, SPM-1 (class B)
[32] = Escherichia coli, TEM-10 (class A)
[33] = Escherichia coli, TEM-24 (class A)
[34] = Escherichia coli, TEM-72 (class A)
[35] = Escherichia coli, VEB-9 (class A)
[36] = Escherichia coli, VIM-1 (class B)
[37] = Escherichia coli, VIM-2 (class B)
[38] = Escherichia coli, VIM-4 (class B)
[39] = Escherichia coli, Vector control

CC(C)(O/N=C(\C(=O)N[C@@H]1C(=O)N2C(C(=O)[O-])=C(C[n+]3ccccc3)CS[C@H]12)c1csc(N)n1)C(=O)O [CAZ]
1 µg/mL: MIC [1, 23] | MIC [1, 26] | MIC [1, 27]
> 1020 µg/mL: MIC [1, 21] | MIC [1, 22]
8 µg/mL: MIC [1, 5]
64 µg/mL: MIC [1, 10] | MIC [1, 13] | MIC (E. cloacae) | MIC (E. cloacae; Enterobacter cloacae, strain 875134, TEM-1/CTX-M-3/DHA-1, read-out: MIC)
512 µg/mL: MIC [1, 7] | MIC [1, 19]
> 128 µg/mL: MIC [1, 11]
256 µg/mL: MIC [1, 6] | MIC [1, 17] | MIC [1, 25] | MIC [1, 38]
128 µg/mL: MIC [1, 9] | MIC [1, 37] | MIC (E. cloacae; Enterobacter cloacae, strain 116723, p99 AmpC/TEM-1/CTX-M-3, read-out: MIC) | MIC (E. cloacae; Enterobacter cloacae, strain 138212, p99 AmpC/SHV-71/TEM-1, read-out: MIC) | MIC (E. cloacae; Enterobacter cloacae, strain 891849, TEM-1, read-out: MIC) | MIC (E. cloacae; Enterobacter cloacae, strain 938772, TEM-OSBL/CTX-M-15/ACT-30, read-out: MIC) | MIC (E. cloacae; Enterobacter cloacae, strain 976004, OXA-48, read-out: MIC)
0.25 µg/mL: MIC [1, 39]
0%: % Susceptible isolates [2] | % Susceptible isolates ([2]; PDC variants (n = 10)) | % Susceptible isolates ([3]; KPC (n = 20)) | % Susceptible isolates ([3]; MBL (n = 20))
35.7%: % Susceptible isolates ([2]; Wild-type, basal level Class C and OprD downregulation with RND efflux upregulation (n=14))
15%: % Susceptible isolates ([3]; ESBL (n = 20)) | % Susceptible isolates ([3]; OXA-48/48-like (n = 20))
2 µg/mL: MIC [1, 24]
32 µg/mL: MIC [1, 8]
1020 µg/mL: MIC [1, 12] | MIC [1, 14] | MIC [1, 15] | MIC [1, 16] | MIC [1, 18] | MIC [1, 20] | MIC [1, 28] | MIC [1, 29] | MIC [1, 30] | MIC [1, 31] | MIC [1, 32] | MIC [1, 33] | MIC [1, 34] | MIC [1, 35] | MIC [1, 36]
0.5 µg/mL: MIC ([1]; Vector control)
9.1%: % Susceptible isolates ([3]; Mixed Class A and C (n = 22))
≥ 256 µg/mL: MIC (E. cloacae; Enterobacter cloacae, strain 20, p99 AmpC/CTX-M-27/SHV-12/ACT-2/TEM-135, read-out: MIC) | MIC (E. cloacae; Enterobacter cloacae, strain 874381, CTX-M-15, read-out: MIC) | MIC (E. cloacae; Enterobacter cloacae, strain 920937, VIM-1, read-out: MIC) | MIC (E. cloacae; Enterobacter cloacae, strain 937223, SHV-12/CTX-M-9/ACT-7, read-out: MIC) | MIC (E. cloacae; Enterobacter cloacae, strain 1249072, TEM-OSBL(b)/VIM-1, read-out: MIC) | MIC (E. cloacae; Enterobacter cloacae, strain 1365477, TEM-OSBL(b)/VIM-1, read-out: MIC)

CO/N=C(\C(=O)N[C@@H]1C(=O)N2C(C(=O)[O-])=C(C[N+]3(C)CCCC3)CS[C@H]12)c1csc(N)n1 [FEP]
> 128 µg/mL: MIC90 [4]
512 µg/mL: MIC [1, 21] | MIC [1, 22] | MIC [1, 28]
256 µg/mL: MIC [1, 18] | MIC [1, 20] | MIC [1, 29]
64 µg/mL: MIC [1, 12] | MIC [1, 13] | MIC [1, 17]
32 µg/mL: MIC [1, 15] | MIC [1, 34] | MIC [1, 38]
2 µg/mL: MIC [1, 7] | MIC [1, 23] | MIC [1, 26] | MIC [1, 27] | MIC [1, 33]
4 µg/mL: MIC [1, 5] | MIC [1, 10] | MIC [1, 11]
16 µg/mL: MIC [1, 14] | MIC [1, 16] | MIC [1, 37]
0.12 µg/mL: MIC [1, 39]
8 µg/mL: MIC [1, 6] | MIC [1, 24] | MIC [1, 32]
128 µg/mL: MIC [1, 8] | MIC [1, 9] | MIC [1, 19] | MIC [1, 25] | MIC [1, 30] | MIC [1, 31] | MIC [1, 35] | MIC [1, 36]
